Measurements: US20050220906A1, “Pharmaceutical composition for treating rheumatism and the preparation thereof” (priority 2002, published 2005)

Key:
hemolysin antibody [1] = test: Hemolysin antibody caused by chick RBC, ICR mouse; type: in vivo; settings: 0˜7
Experimental: (§1) 190 mice, 18-22 g weight, half male and half female, were divided into 19 groups. Each mouse was immunized with 5% CRBC solution 0.2 ml. The Fengshiping solutions were drenched at the different times. 7 days after the immunization, all the mice were sampled the blood from the eyes. Then the blood samples were diluted and measured the level of the hemolysin antibody.

CD4, CD8 cells = test: CD4 and CD8 cells of the spleen; type: in vivo, ICR mice; settings: 0.02 g/kg
Experimental: (§2) The experiment was same to 5.1. 24 hours after the last administration, the spleen cell samples were made into the 2×10^8/ml cell suspension with 5% FCS-RPIM1640. The quantity of CD4, CD8, NK cells and the rate CD4/CD8 were measured on the usural method.
The spleen cell suspension 50 μl was added on the glass to made the cell smear. The glass had been coated by the polylysine. The T cell of the mouse was set as the positive control sample. The cell smear was enveloped by the serum of the normal mouse after it was fixed by the acetone. Then the enveloped sample was added with the antibody of CD4 and CD8 which were marked by the hominine biotin. It was incubated at 37° C. for 2 hours. Then the sample was added with the avidin labeled by enzyme and put still for 10 min. After added with the substrate for 10 min, the mixed sample was washed and dyed with the hematoxylin for 2 min. Then the sample was dyhidrated with the grade-alcohol and enveloped with gelatin-glycetrol. 200 cells in the smear were chosen as the research target under the high power microscope. [formula]

NK cell = NK cell activity (Yack-1 target cells); type: in vivo, ICR mice; settings: 0.02 g/kg
Experimental: as §2
The preparation of the EC cell: The spleen cells were sampled in the asepsis condition. Then the samples were washed by the Hank's liquor for 2 times and nonserum RPMI1640 liquor for 1 time. Then the clear samples were adjusted to the 2×10^8/ml cell suspension with 5% FCS-RPMI liquor. This cell suspension was used as the EC.
The preparation of the TC cell: The Yack-1 cells, which were sensitive to the mouse NK cell and on the logarithmic growth phase, were adjusted to the 4×10^4/ml cell suspension. It was the TC.
Measurement: EC and TC, 100 μl each were added in the 96-hole flat bottom cell culturing batten. Each sample was cultured with 3 copies and set 2 control samples: EC and TC. […] The samples were cultured in 5% CO2 at 37° C. for 24 hours. 6 hours before the end of the culturing, the samples were centrifuged and sucked out 110 μl supernate each hole. And then the holes were added in the MTT 10 μl. After put at 37° C. for 3 hours, the mixed samples were measured the OD value at the wavelength of 570 nm and 630 nm. The OD of each hole=OD570 nm-OD630 nm.

IL-1 = IL-1 of abdominal macrophages from dosed mice; type: in vivo, NIH mice; settings: 0.02 g/kg, 10 days
Experimental: 70 NIH mice, 18-22 g weight, half male and half female, were divided into 7 groups at random. All the groups were drenched with the correspondent medicines (fengshiping and the other medicines). The medicines were drenched once a day for 10 days. 24 hours after the last administration, all the mice were killed and sampled the macrophage and spleen cells from the abdominal carvity. The IL-1 and IL-6 in the samples were measured.
The macrophages in the abdominal carvity were sampled in the asepsis condition. Then the samples were washed by the Hank's liquor for 2 times and nonserum RPMI1640 liquor for 1 time. Then the clear samples were adjusted to the 4×10^6/ml cell suspension with 5% FCS-RPMI liquor. 1 ml of the suspension was added to the test tube and cultured at 37° C. for 1 hour. The unadherent cells were abandoned. Then the cultured liquor was added with 5% FCS-RPMI 1640 and LPS (10 ng/ml) to culture. The cells cultured in 5% CO2 at 37° C. for 72 hours. During the course, the cultured cells were freezed and thawed for several times. The final product was saved at 4° C. The C57 mice were sampled the thymus in the asepsis condition. […]
100 μl supernate separated from the frost thawing liquor and 100 μl cell suspension of thymus were added into the 96-hole flat bottom cell-culture batten. […] The cultured cells were collected with multihead cell-harvesting apparatus and measured the cpm value. […]

TNF α = TNF α level of cultured cells from dosed mice; type: in vivo, ICR mice; settings: 0.02 g/kg, 10 days
Experimental: 60 ICR mice, 1822 g, half male and half female, were divided into 6 groups at random. Each group was drenched of the correspondent medicines including the different dosages of Fengshiping and the other medicines. The medicines were administrated once a day for 10 days. 24 hours after the last administration, the mice were sampled the macrophage and spleen cells from the abdominal cavity in the aseptic condition. The samples were washed with Hank's liquor for 2 times and non-serum RPIM 1640 liquor for 1 time. Then the washed samples were diluted to the suspension with the 5% FCS-RPMI 1640 at the concentration of 2×10^8/ml. Then the suspensions were added with 10 ng/ml LPS or the 10 ng/ml ConA and cultured in the 5% CO2 condition for 48 hours at 37° C. Then the cultured suspension were measured the TNF α and IL-2 levels on the usual methods.
The batten was coated by mouse TNF-α monoclonal antibody. The batten was added with the cultured supernate on the dose of 50 μl/hole. Then the batten was put still for 60 minutes at the room temperature. Then the batten was added with biotin antibody mark at 25° C. for 2 hours. Then the enzyme labeled avidin was added into the batten for 30 minutes. […] The mixed liquor was measured the OD value at the wavelength of the 450 nm. The content of the TNF-α (ng/ml) was calculated on the data of OD value by the method of standard curve.

hemolysin antibody [2] = test: Hemolysin antibody caused by chick RBC, NIH mouse; type: in vivo; settings: 0.02 g/kg, 0˜7
Experimental: as §1

Structure (SMILES): O=P1(N(CCCl)CCCl)NCCCO1 (stereo not drawn) [cyclophosphane]
- Hemolysin value (hemolysin antibody [1]; Table 3.2, 0.02 g/kg): 27.80 ± 6.60
- Inhibiting percent (hemolysin antibody [1]; Table 3.2, 0.02 g/kg): 77.9%
- Hemolysin value (hemolysin antibody [1]; Table 3.3, 0.02 g/kg): 25.0 ± 4.0
- Inhibiting percent (hemolysin antibody [1]; Table 3.3, 0.02 g/kg): 90.2%
- CD4 (CD4, CD8 cells): 11.50 ± 2.50 %
- CD4/CD8 (CD4, CD8 cells): 2.91 ± 0.53
- CD8 (CD4, CD8 cells): 4.10 ± 1.20 %
- NK (NK cell): 23.10 ± 3.66 ^
- IL-1 (IL-1): 44.5 ± 7.7 ng/mL
- TNF (TNF α): 42.20 ± 9.57 pg/mL
- Hemolysin value (hemolysin antibody [2]): 35.0 ± 12.0
- Inhibiting percent (hemolysin antibody [2]): 79.3%
